Results: patent US20130150399A1, “INHIBITORS OF THE UNFOLDED PROTEIN RESPONSE AND METHODS FOR THEIR USE” (The Board of Trustees of the Leland Stanford Junior …, priority 2006, published 2013)

System: P58^IPK, DER-1
Assay: Northern blot of XBP-1s transcription targets, HT1080 cells
Assay type: cell-based, human
Conditions: 2 μM; Tm or hypoxia 24 hours
Description: Cells were cultured in 10 cm plates, harvested, and total RNA recovered with Trizol (Invitrogen, San Diego, Calif.). Total RNA (10 μg) was resolved on a 1% agarose-formaldehyde gel. ^32P-labeled probes were prepared using the Rediprime II random-prime labeling kit (GE-Amersham, Buckinghamshire, UK). The primers used to PCR amplify probes are as follows. P58^IPK: 5′[…] 3′ (SEQ ID NO: 4); 5′ […] 3′ (SEQ ID NO: 5). DER-1: 5′ […] 3′ (SEQ ID NO: 6); 5′[…] 3′ (SEQ ID NO: 7). Blots were incubated with probe overnight, washed three times in 2×SSC/0.2% SDS, dried, and exposed to a phosphorimager screen overnight. Images were analyzed using ImageQuant software (Molecular Dynamics).
A. XBP-luciferase reporter construct. Firefly luciferase was inserted downstream of the IRE1α splice site in human XBP-1 to enable the conditional translation of luciferase under ER stress in an IRE1α-dependent manner. […] After 24 hours, luciferase activity was analyzed in an automated plate reader. For each cell line, values are expressed as the percent inhibition of the median for Tm/Tg-treated wells, corrected for background. […] Values are expressed as the fold increases over uninduced levels. […] Cells were harvested, lysed, and analyzed by immunoblotting with antisera specific for HIF-1α (top), XBP-1s (middle) or actin (bottom). […] Total RNA was analyzed by Northern blotting using radiolabeled probes specific for P58^IPK or DER-1. […]

SMILES: Cc1csc(NC(=O)CSc2nc3c(c(C(F)(F)F)c2C#N)CCC3)n1 [Compound 9389]
- induction of P58^IPK and DER-1 expression: fully inhibited this response
